# Test results taken from PubChem BioAssay AID1198 (NMMLSC, 2008).
# The source made the active and inactive calls.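 How the source made its calls: active means EC50 under 10 microM for raising side scatter, a sign of cell differentiation; inactive means the rest, including fits that never converged.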
# Test system: LNCaP side scatter shift, flow cytometry, 4 days
# Test: activators of LNCaP prostate cell differentiation, dose response, flow cytometry, side scatter granularity (AID 1198)
# Settings: not given
row,SMILES,EC50
1,Cn1c(C(=O)NCCCN2CCN(c3cccc(Cl)c3)CC2)cc2c(=O)n(C)c3ccccc3c21,0.87 µM
2,COc1ccc(N2CCN(CCCNC(=O)CC3Oc4ccc(C)cc4NC3=O)CC2)cc1 (stereo not drawn),27 µM (inactive)
3,CCN(CCNC(=O)C1CCN(Cc2nc(-c3ccc(Cl)cc3)oc2C)CC1)c1ccccc1,2 µM
4,N=c1n(CCN2CCCCC2)c2ccccc2n1CC(O)COc1ccccc1 (stereo not drawn),0.994 µM
5,CCN1CCN(C(c2cccs2)C(C)NS(=O)(=O)c2ccc(Br)cc2)CC1 (stereo not drawn),15.2 µM (inactive)
6,CN(CC(O)COc1ccc(OCC(O)CN(C)C2CCCCC2)cc1)C1CCCCC1 (stereo not drawn),4.32 µM
7,CN1CCN(c2cc3c(c4c2[nH]c2ccccc24)C(=O)CC(C)(C)C3)CC1,3.65 µM
8,CCN(CC)CC(=O)Nc1ccc(-c2nc3cc(NC(=O)CN(CC)CC)ccc3o2)cc1,0.83 µM
9,CCN1CCN(CCNC(=O)C2CCN(Cc3nc(-c4ccc(Cl)cc4)oc3C)CC2)CC1,16.6 µM (inactive)
10,CN1CCN(CCCNC(=O)c2cc3c(-c4ccc(Cl)cc4)nn(C)c3s2)CC1,6.41 µM
11,CCn1c(=O)cc(SCC(=O)NCCCN2CCN(c3ccccc3F)CC2)c2ccccc21,8.92 µM
12,Cc1cccc(-c2nsc(SCC(=O)Nc3nccs3)n2)c1,12 µM (inactive)
13,COc1ccc(-c2ccc(-c3noc(-c4ccccc4)n3)c(OC)n2)cc1,10.4 µM (inactive)
14,Cc1oc(-c2ccc(Cl)cc2)nc1CN1CCC(C(=O)NCCCN2CCOCC2)CC1,3 µM
15,Cc1cc(N2CCN(C)CC2)nc2ccc(NC(=O)c3ccc4c(c3)OCO4)cc12,10.4 µM (inactive)
16,CCOc1cccc2cc(-c3cn4cc(C)ccc4n3)c(=O)oc12,20.6 µM (inactive)
17,Cc1ccc(OCC(O)Cn2c(=N)n(CCN3CCCCC3)c3ccccc32)cc1 (stereo not drawn),4.11 µM

row,SMILES,EC50
1,CCN1CCCC1CNC(=O)C1CCN(Cc2nc(-c3cccc(Br)c3)oc2C)CC1 (stereo not drawn),1.12 µM
2,COc1ccccc1NC(=O)c1nc[nH]c1C(=O)Nc1ccccc1OC,9.52 µM
3,Cn1nc(-c2ccc(Cl)cc2)c2cc(C(=O)NCCCN3CCOCC3)sc21,5.53 µM
4,COC(=O)c1cc(-c2ccccc2)sc1NC(=O)c1cc(C)on1,1.87 µM
5,CCOc1ccccc1NC(=O)c1nc[nH]c1C(=O)Nc1ccccc1OCC,6.66 µM
6,CCOc1ccc(-c2cc(C(=O)NCCCN3CCN(CC)CC3)c3ccccc3n2)cc1,6.41 µM
7,Cc1ccccc1-c1nc(CN2CCCC(C(=O)NCCCN3CCOCC3)C2)c(C)o1 (stereo not drawn),7.03 µM
8,COc1ccc(CCn2c(=N)c(C(=O)NCc3ccco3)cc3c(=O)n4ccccc4nc32)cc1,7.49 µM
9,Cc1noc(/C=C/c2ccco2)c1S(=O)(=O)N1CCC(C(=O)N2CCc3ccccc3C2)CC1,5.2 µM
10,CC1CCCCN1CCNC(=O)c1ccc2c(=O)n(CCc3ccccc3)c(=O)[nH]c2c1 (stereo not drawn),6.5 µM
11,CCCN(CCC)CCNC(=O)C1CCN(Cc2nc(-c3ccc(Cl)cc3)oc2C)CC1,0.768 µM
12,Cc1ccccc1-c1nc(CN2CCC(C(=O)NCCCN3CCOCC3)CC2)c(C)o1,6.69 µM
13,COc1cc2nc(N3CCN(C(=O)C4COc5ccccc5O4)CC3)nc(N)c2cc1OC (stereo not drawn),3.95 µM
14,Oc1c(CN2CCCCC2)cc(COCc2ccccc2)c2cccnc12,3.81 µM
15,COc1ccc(-c2noc(-c3cc(Cl)ccc3Cl)n2)cc1OC,5.7 µM
16,Cc1cc(N2CCN(C)CC2)nc2ccc(NC(=O)c3ccc(Br)o3)cc12,2.79 µM
17,CN(C)c1ccc(CNC2CC(C)(C)NC(C)(C)C2)cc1,8.74 µM

# Test system: not listed separately
# Test: as above
# Settings: LNCaP side scatter shift, flow cytometry, 4 days; at 30 µM (top of the series)
row,SMILES,side scatter activation
1,O=C(Cn1cc2c(n1)CCCC2)NCCCN1CCN(c2ccccc2F)CC1,31.1% (inactive)
2,CCN1CCN(c2cc(C)c3cc(NC(=O)c4ccc(Br)o4)ccc3n2)CC1,73% (inactive)
3,CC1CCCCN1CCNC(=O)c1cc2c(-c3ccccc3F)nn(C)c2s1 (stereo not drawn),84.3% (inactive)
4,Cc1ccccc1-c1nc(CN2CCC(C(=O)NCCCN3CC(C)CC(C)C3)CC2)c(C)o1 (stereo not drawn),31.1% (inactive)
5,Cc1ccc(C)c(N2CCN(CCCNC(=O)Cn3cc4c(n3)CCCCC4)CC2)c1,0% (inactive)
6,CCCOc1ccccc1C1CC(=O)Nc2cc3c(cc21)OCO3 (stereo not drawn),0% (inactive)
7,Cn1c(=O)cc(SCC(=O)NCCCN2CCN(c3ccccc3F)CC2)c2ccccc21,31.1% (inactive)
8,CCOC(=O)c1[nH]c(C)c(C(=O)N2CCc3ccccc32)c1C,1.98% (inactive)
9,CCCc1cc(-c2n[nH]c(C)c2-c2ccc(C(=O)OCC)o2)c(O)cc1O,1.98% (inactive)
10,Cc1cc(C)nc(N2CCC(C(=O)Nc3ccc(Oc4ccccc4)cc3)CC2)n1,40.2% (inactive)
11,CN(C)CCCN1c2ccccc2CCc2ccc(Cl)cc21,73% (inactive)
12,Nc1ccc(-n2ccnc2)cc1,84.3% (inactive)
13,Cc1cc2c(=O)n(CC(=O)N3CCN(c4ccccc4)CC3)cnc2s1,84.3% (inactive)
14,CCCS(=O)(=O)N1CCCC(C(=O)NCCCN2CCN(c3ccc(F)cc3)CC2)C1 (stereo not drawn),1.98% (inactive)
15,Cc1ccccc1-c1nc(CN2CCC(C(=O)NCCCN3CCCC3)CC2)c(C)o1,1.98% (inactive)
16,Cc1ccc(Nc2cc(=O)n(C3CCCCC3)c(=O)[nH]2)cc1C,0% (inactive)
17,Cc1oc(-c2ccc(Cl)cc2)nc1CN1CCC(C(=O)N2CCN(Cc3ccccc3)CC2)CC1,31.1% (inactive)
18,C[C@H]1CCC/C=C/C2C[C@H](O)CC2[C@H](O)/C=C/C(=O)O1 (stereo partly drawn),0% (inactive)
19,COc1ccc(N2CCN(CCCNC(=O)c3cc4sccc4n3C)CC2)cc1,40.2% (inactive)
20,CCN(CC)CCCNC(=O)c1cc2c(-c3ccc(Cl)cc3)nn(C)c2s1,84.3% (inactive)

row,SMILES,side scatter activation
1,Cc1nc2ncnn2c(C)c1CCC(=O)NCCCN1CCN(c2cccc(Cl)c2)CC1,84.3% (inactive)
2,Cn1c(=O)[nH]c(=O)c2c1nc(Br)n2CCCSc1nc2ccccc2o1,1.98% (inactive)
3,COc1ccc2cc3cc(C(=O)Nc4ccccc4N4CCN(C)CC4)oc3nc2c1,44.4% (inactive)
4,COc1ccc(Nc2nc(N)nc(CN3CCC(Cc4ccccc4)CC3)n2)cc1,73% (inactive)
5,Cc1ccc(CNc2nc3ccccc3n3nnnc23)cc1,40.2% (inactive)
6,COc1ccc(N2CCN(CCCNC(=O)CCCn3c(=O)[nH]c4ccsc4c3=O)CC2)cc1,1.98% (inactive)
7,CCOc1ccc(NC(=O)COc2nsnc2N2CCCCC2)cc1,0% (inactive)
8,O=C(NCCCN1CCN(c2cccc(Cl)c2)CC1)c1cccc(N2CCCC2=O)c1,38.5% (inactive)
9,COc1ccc(Cc2nc(-c3ccc(-n4cccc4)cc3)no2)cc1OC,1.98% (inactive)
10,CC(C)(C)c1ccc(C(O)CCCN2CCC(C(O)(c3ccccc3)c3ccccc3)CC2)cc1 (stereo not drawn),0% (inactive)
11,CCN1CCCC1CNC(=O)c1cc2c(-c3ccc(Cl)cc3)nn(C)c2s1 (stereo not drawn),84.3% (inactive)
12,CCOC(=O)c1c(C)[nH]c(C(=O)COC(=O)C2CC2C)c1C (stereo not drawn),73% (inactive)
13,O=C(NCCCN1CCN(c2ccc(F)cc2)CC1)c1cccc(N2CCCC2=O)c1,73% (inactive)
14,Clc1ccc(COC(Cn2ccnc2)c2ccc(Cl)cc2Cl)cc1 (stereo not drawn),0% (inactive)
15,CCn1c(=N)n(CC(O)COc2cccc(C)c2)c2ccccc21 (stereo not drawn),0% (inactive)
16,O=C(c1ccccc1)c1ccc(N2CCNCC2)cc1,73% (inactive)
17,CCN(CC)CCNC(=O)c1ccc(N2CCCCC2)c(NS(=O)(=O)c2ccc(C)cc2)c1,44.4% (inactive)
18,Cc1ccccc1CS(=O)(=O)CCC(=O)NCCCN1CCN(c2ccccc2F)CC1,31.1% (inactive)
19,COc1ccc(-c2oc3ncn(CCN4CCOCC4)c(=N)c3c2-c2ccc(OC)cc2)cc1,44.4% (inactive)
20,CCOC(=O)c1c(C)n(C)c2ccc(OCC(O)CNC(CC)CO)cc12 (stereo not drawn),38.5% (inactive)

row,SMILES,side scatter activation
1,COc1ccc(-c2noc(CCC(=O)NCCCN3CCC(Cc4ccccc4)CC3)n2)cc1,1.98% (inactive)
2,O=c1cc(-c2ccccc2)[nH]c2ccccc12,1.98% (inactive)
3,COc1ccccc1N1CCN(Cc2cc(Br)c(O)c3ncccc23)CC1,1.98% (inactive)
4,O=C(CCN1C(=O)COc2ccccc21)NCCCN1CCN(c2ccc(F)cc2)CC1,40.2% (inactive)
5,CCN(CCNC(=O)C1CCN(Cc2nc(-c3cccc(Cl)c3)oc2C)CC1)c1ccccc1,0% (inactive)
6,Cn1nc(-c2ccc(Cl)cc2)c2cc(C(=O)NCCCN3CCCC3)sc21,84.3% (inactive)
7,CCN(CC)CCNC(=O)c1cc2c(-c3ccc(Cl)cc3)nn(C)c2s1,31.1% (inactive)
8,COc1ccc(CCN2CCC(Nc3nc4ccccc4n3Cc3ccc(F)cc3)CC2)cc1,40.2% (inactive)
9,CCc1ccc(-c2nc(CN3CCC(C(=O)NCc4ccc(F)cc4)CC3)c(C)o2)cc1,0% (inactive)
10,COc1ccc(-c2cc(C(F)(F)F)nc(N3CCN(Cc4ccccc4)CC3)n2)cc1OC,44.4% (inactive)
11,COc1ccccc1N1CCN(c2nc3ccccc3nc2C(C#N)C(=O)OC(C)C)CC1 (stereo not drawn),44.4% (inactive)
12,O=S1(=O)C=C(Sc2nc3ccccc3s2)c2ccccc21,0% (inactive)
13,Cn1c(=O)cc(OCC(=O)NCCCN2CCN(c3ccccc3F)CC2)c2ccccc21,73% (inactive)
14,CC(C)N1CCC2(CC1)N=C(c1ccc3c(c1)OCO3)CC(c1cc(Cl)ccc1O)N2 (stereo not drawn),1.98% (inactive)
15,CCOC(=O)c1ccccc1NC(=O)Cn1c(-c2nonc2N)nc2ccccc21,44.4% (inactive)
16,CN(CCNC(=O)C1CC(=O)N(c2ccc(F)c(Cl)c2)C1)Cc1ccccc1 (stereo not drawn),44.4% (inactive)
17,CCn1c(=O)cc(SCC(=O)NCCN2CCN(Cc3ccccc3)CC2)c2ccccc21,73% (inactive)
18,Cc1ccccc1-c1nc(CN2CCC(C(=O)NCc3cccnc3)CC2)c(C)o1,38.5% (inactive)
19,Cc1ccc(Cl)cc1N1CCN(C(=O)c2cc3c(=O)n(C)c4ccccc4c3n2C)CC1,0% (inactive)
